“Also recorded” adds a separate entry of the source.
Legend:
[1] = test system: Advillin^Cre; Mecp2^f/y mutant mice; assay: Response to air puff stimulus alone after drug injection; format: in vivo, mouse; conditions: Midazolam 2.5 mg/kg or isoguvacine 1 mg/kg injection
Description: (§1) FIG. 15A is a graph showing the startle response of Advillin^Cre; Mecp2^f/y mutant mice and control littermates following injection of: vehicle (saline), Bumetanide (0.2 mg/kg), Midazolam (2.5 mg/kg) or isoguvacine (1 mg/kg). […] FIG. 15B is a graph showing the response to tactile PPI of Advillin^Cre; Mecp2^f/y mutant mice and control littermates following injection of: vehicle (saline), Bumetanide (0.2 mg/kg), Midazolam (2.5 mg/kg) or isoguvacine (1 mg/kg). […] FIG. 15C is a graph showing the response to air puff alone of Advillin^Cre; Mecp2^f/y mutant mice and control littermates following injection of: vehicle (saline), Bumetanide (0.2 mg/kg), Midazolam (2.5 mg/kg) or isoguvacine (1 mg/kg).
The response of mice to tactile and acoustic startle stimuli, and the ability of a tactile or acoustic stimulus to inhibit startle to a loud acoustic stimulus was measured using a San Diego Instruments startle reflex system (SR-LAB™ Startle Response System). […] Air puffs were administered to the back of the mouse to assess hairy skin sensitivity. […] In addition, this prepulse intensity was chosen because it produced significant inhibition of startle reflex at multiple (ISIs). […]

[2] = test system: Advillin^Cre; Mecp2^f/y mutant mice; assay: Tactile PPI assay after drug injection; format: in vivo, mouse; conditions: Midazolam 2.5 mg/kg or isoguvacine 1 mg/kg injection
Description: as §1
(§2) The response of mice to tactile and acoustic startle stimuli, and the ability of a tactile or acoustic stimulus to inhibit startle to a loud acoustic stimulus was measured using a San Diego Instruments startle reflex system (SR-LAB™ Startle Response System). […] Air puffs were administered to the back of the mouse to assess hairy skin sensitivity. […]
(§3) For acoustic PPI, the prepulse was 20 ms in duration and presented 100 ms before the startle pulse (inter-stimulus interval, ISI). […] Whole body flinch, or startle reflex, was quantitated using an accelerometer sensor measuring the amplitude of movement of the animal, within the cylindrical holder.

[3] = test system: Advillin^Cre; Mecp2^f/y mutant mice and control littermates; assay: Magnitude of startle response to a 125 dB noise after drug injection; format: in vivo, mouse; conditions: Midazolam 2.5 mg/kg injection, compared to animals treated with vehicle
Description: as §1, §2, §3

[4] = test system: mice including Advillin^Cre; Mecp2^floxed mutant mice; assay: Open field test after isoguvacine; format: in vivo, mouse; conditions: 1 mg/kg, i.p.
Description: (§4) Values are expressed as percent of control littermates' performance. Experiments were performed in mutant mice (Advillin^Cre; Mecp2^f/y, Shank3B^+/− or Fmr1^−/y) and control littermates, 30 minutes after an intraperitoneal (i.p.) of either saline (vehicle) or Isoguvacine (1 mg/kg). Two-way ANOVA, with post-hoc Holm-Sidak's test, *, p<0.05, when comparing mutants to control within same treatment; #, p<0.05, when comparing the same genotype across different treatments. FIG. 56B is a graph of response to a light air puff stimulus alone (0.9 PSI, 50 ms). Responses are expressed as a percent of startle response to a 125-B noise. Experiments were performed in mutant mice (Advillin^Cre; Mecp2^f/y, Shank3B^+/− or Fmr1^−/y) and control littermates, 30 minutes after an intraperitoneal (i.p.) of either saline (vehicle) or isoguvacine (1 mg/kg). Two-way ANOVA, with post-hoc Holm-Sidak's test, *, p<0.05, and t, p<0.10, when comparing mutants to control within same treatment; #, p<0.05, when comparing the same genotype across different treatments. FIG. 56C is a graph of magnitude of startle response to a 125-dB noise. […]
On the first day of behavioral testing, animals were subjected to the open field test. […] A portion of videos were blindly hand-scored to verify accuracy. Distance traveled and time spent away from walls (time in center) were analyzed per 10-minute video.

[5] = test system: large diameter DRG neurons cultured from Shank3B^+/- or Mecp2^STOP/y mice; assay: Whole cell patch clamp recordings of cultured large diameter DRG neurons from mutant mice; format: cell-based, mouse; conditions: 10 μM isoguvacine; for resting membrane potential / rheobase, excitability: neurons from Shank3B^+/- or Mecp2^STOP/y mice
Text: Repeated measures two-way ANOVA with post-hoc Tukey's test: *, p<0.05. […] Repeated measures two-way ANOVA with post-hoc Tukey's test: *, p<0.05. […] Repeated measures two-way ANOVA with post-hoc Tukey's test: *, p<0.05. […] Repeated measures two-way ANOVA with post-hoc Tukey's test: *, p<0.05.
We next determined whether isoguvacine could improve electrophysiological deficits observed in large diameter peripheral somatosensory neurons cultured from Shank3 and Mecp2 mutant mice.

[6] = test system: large diameter DRG neurons cultured from control mice; assay: Whole cell patch clamp recordings of cultured large diameter DRG neurons; format: cell-based, mouse; conditions: 10 μM isoguvacine, 5 minutes after application
Text: Repeated measures one-way ANOVA, *, p<0.05. […] Student's paired t-test, p<0.05. […] Repeated measures one-way ANOVA, *, p<0.05. […] Student's paired t-test, p<0.05.
These exciting findings prompted us to ask whether peripherally restricted GABAA receptor agonists could also be used to ameliorate tactile hypersensitivity and other behavioral deficits in ASD models. We utilized a peripherally restricted GABAA receptor agonist, isoguvacine, to determine whether augmenting GABAA receptor signaling at DRG cell bodies could reduce excitability of primary somatosensory afferents.

[7] = test system: Mecp2, Shank3 and Fmr1 mutant mice; assay: Tactile PPI assay in multiple ASD mouse models; format: in vivo; conditions: 1 mg/kg, i.p., acute, 30 minutes before test
Description: as §4
(§5) The response of mice to tactile and acoustic startle stimuli, and the ability of a tactile or acoustic stimulus to inhibit startle to a loud acoustic stimulus was measured using a San Diego Instruments startle reflex system (SR-LAB™ Startle Response System). […]

control mice = assay: Tactile PPI with back hairy skin pretreated with lidocaine; format: in vivo, mouse
Description: FIG. 1A is an image showing a smooth textured object (left) and a rough textured object (right) used in the textured NORT. FIG. 1B is a schematic outlining the protocol for the three NORT assays. FIG. 1C is a graph showing the discrimination indices for textured NORT. A positive value indicates preference for the novel object, compared to the familiar object. *, p<0.05. FIG. 1D is a graph showing the discrimination indices for 5 minute control NORT. A positive value indicates preference for the novel object, compared to the familiar object. *, p<0.05. FIG. 1E is a graph showing the discrimination indices for 1 hour control NORT. A positive value indicates preference for the novel object, compared to the familiar object. *, p<0.05. FIG. 1F is a schematic showing the tactile PPI assay. […] Responses are expressed as percent of startle response to a 125 dB noise. *, p<0.01. […] Responses are expressed as percent of startle response to a 125 dB noise. *, p<0.05. […]
as §5

Row | Compound | response to an air puff stimulus alone [1] | responses in the tactile PPI assay [2] | startle amplitude [3] | time spent in the center of a chamber during the open field test [4] | rheobase compared with neurons cultured from control littermates ([5]; neurons from Shank3B^+/- and Mecp2^STOP/y mice) | resting membrane potential [5] | rheobase, excitability [5] | resting membrane potential ([5]; listed as Isoguvacine) | rheobase, excitability ([5]; listed as Isoguvacine) | minimal current required to produce an action potential (rheobase), excitability [6] | resting membrane potential [6] | tactile hypersensitivity, as measured by the tactile PPI assay [7] | tactile PPI (control mice)
1 | Cc1ncc2n1-c1ccc(Cl)cc1C(c1ccccc1F)=NC2 [Midazolam] | decreased response to an air puff stimulus alone | trend toward normalized responses | trend toward decreased startle amplitude | – | – | – | – | – | – | – | – | – | –
2 | O=C(O)C1=CCNCC1 [isoguvacine] | decreased response to an air puff stimulus alone | trend toward normalized responses | – | enhanced the time spent in the center | rheobase was no longer different than neurons cultured from control littermates | significant decrease in resting membrane potential | increase in rheobase | reduces resting membrane potential | decreases excitability | decreases excitability; also recorded: increase in the amount of minimal current required to produce an action potential | reduces resting membrane potential; also recorded: decrease in resting membrane potential | significantly reduces tactile hypersensitivity | –
3 | CCN(CC)CC(=O)Nc1c(C)cccc1C [lidocaine] | – | – | – | – | – | – | – | – | – | – | – | – | abolished

Source: patent US11547706B2, “Methods and compositions for reducing tactile dysfunction and anxiety associated with autism spectrum disorder, Rett syndrome, and Fragile X syndrome” (President and Fellows of Harvard College, priority 2016, dated 2023)
